Reference: patent US7608625B2, “Method for treating bruxism and bruxism-related diseases” (Eisai R & D Management Co., Ltd., priority 2003, dated 2009)
Where a name gives a salt, the structure may show the parent alone.

Assays:
[1] = system: bruxism patient; assay: Temporal muscle activity during sleep in bruxism patients, placebo or proton pump inhibitor (Experiment 2, double-blind); type: in vivo, human; settings: 10 mg
Method: A catheter with a pH electrode was inserted into the test subject's esophagus 5 cm above the upper portion of the lower esophageal sphincter and pH was measured while the subject was asleep, while a disposable (bipolar) electrode was affixed to the skin at the front of the temporal muscle on one side. An amount of muscle activity during sleep was measured from 2.5 hours after falling asleep for a 40-minute period. At the same time, video and sound recordings were made that confirmed bruxism during sleep. […] In this Figure, when stable pH levels in the esophagus declined sharply, this was defined as an “decreased esophageal pH episode”. Measurement of temporal muscle activity during sleep in the bruxsim patient medicated with placebo or the proton pump inhibitor In a double-blind trial, test subjects were assigned to either medication with placebo or the proton pump inhibitor [sodium salt of rabeprazole (10 mg; brand name: […] (registered trademark), Eisai Co., Ltd.)] and, according to the method used in experiment 1, the amount of muscle activity during sleep in the front of the temporal muscle on one side was measured for a 4-hour period between 1 and 5 hours after falling asleep. Video and sound recordings were made at the same time that confirmed bruxism during sleep. […] A paired t test was used to test for significance, with P<0.05 defined as indicating a statistically significant difference.

[2] = system: bruxism patient; assay: Frequency of bruxism episodes during sleep in bruxism patients, placebo, PPI, H2RA or the combination (Experiment 3, double-blind); type: in vivo, human; settings: FIG. 3; bruxism patients n=9; 10 mg of each drug; 4-hour period between 1 and 5 hours after falling asleep; vs placebo; paired t test, P<0.05 significant
Method: A catheter with a pH electrode was inserted into the test subject's esophagus 5 cm above the upper portion of the lower esophageal sphincter and pH was measured while the subject was asleep, while a disposable (bipolar) electrode was affixed to the skin at the front of the temporal muscle on one side. An amount of muscle activity during sleep was measured from 2.5 hours after falling asleep for a 40-minute period. At the same time, video and sound recordings were made that confirmed bruxism during sleep. […] In this Figure, when stable pH levels in the esophagus declined sharply, this was defined as an “decreased esophageal pH episode”. […] According to the methods used in experiment 1, the amount of muscle activity during sleep in the front of the temporal muscle on one side was measured for a 4-hour period between 1 and 5 hours after falling asleep. […]

Question: What does the source list for COCCCOc1ccnc(C[S+]([O-])c2nc3ccccc3[nH]2)c1C (stereo not shown) [proton pump inhibitor, sodium salt of rabeprazole]?
Answer: frequency of jaw motion accompanying rhythmical temporal muscle activity (bruxism episode) ([1]; FIG. 2(A), one bruxism patient, 4-hour period between 1 and 5 hours after falling asleep, compared to placebo): substantial decline; frequency of bruxism episodes per hour of sleep ([1]; FIG. 2(B), bruxism patients n=8, vs placebo, paired t test, ****P<0.0001): significantly reduces; duration of bruxism episodes per hour of sleep ([1]; FIG. 2(B), bruxism patients n=8, vs placebo, paired t test, ***P<0.001): significantly reduces; frequency of bruxism episodes per hour of sleep [2]: significant reduction
